From US20030157640A1, “Aequorin as a growth marker in yeast” (priority 2001, published 2003)

Tests used:
pheromone receptor Ste2 [1] = molecular target: T1, pheromone receptor Ste2 (Saccharomyces cerevisiae, UniProt D6VTK4); experiment: Pheromone pathway activity reporter assay, 4PRE-Aequorin reporter in yeast; format: cell-based
T1 construct: As a yeast strain W303 MAT a, far::hisG, sst2::URA3^FOA, fus1::HIS3 was used; endogenous in cells; host or cells: yeast strain W303 MATa far::hisG sst2::URA3^FOA fus1::HIS3, transformed with reporter plasmid p78 4PRE-AEQ or p78 4PRE-LacZ
T1 sequence (D6VTK4 1-431): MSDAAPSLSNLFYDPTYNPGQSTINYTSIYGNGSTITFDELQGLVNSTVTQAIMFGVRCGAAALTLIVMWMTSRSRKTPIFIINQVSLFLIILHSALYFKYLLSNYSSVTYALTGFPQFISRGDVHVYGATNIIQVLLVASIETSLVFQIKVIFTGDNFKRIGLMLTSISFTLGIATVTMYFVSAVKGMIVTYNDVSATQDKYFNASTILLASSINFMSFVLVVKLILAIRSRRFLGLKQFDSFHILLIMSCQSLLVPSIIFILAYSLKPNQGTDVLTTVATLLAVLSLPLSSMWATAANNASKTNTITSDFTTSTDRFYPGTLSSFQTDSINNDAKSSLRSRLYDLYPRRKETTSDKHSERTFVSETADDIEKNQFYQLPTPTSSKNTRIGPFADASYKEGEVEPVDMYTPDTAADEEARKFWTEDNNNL
Procedure: (§1) As a yeast strain W303 MAT a, far::hisG, sst2::URA3^FOA, fus1::HIS3 was used.
The cells are distributed and/or grown in a white 96-well plate, in a volume of 100 μl.
30 minutes before the measurement time point, 10 μl of a 5 μM coelenterazine (Molecular Probes) solution is distributed in each well (to obtain a 0.5 μM final concentration) to load the cells.
The plate is then incubated at 30° C. for the last 30 minutes.
Aequorin detection is made in a luminometer with injecting system (Luminoskan, Labsystems). For each well, immediately after injection of a 10 mM CaCl2 solution (1M CaCl2 diluted in lysis buffer Y-PER from Pierce), the luminescent signal is integrated for 15 seconds.
To avoid the intermediate step of loading, it is possible to introduce coelenterazine in the medium at the beginning of the assay: coelenterazine is added at a concentration of 0.5 μM.
(§2) In this assay, the expression of the two reporter genes depends on the activity of the pheromone mating pathway (Leberer et al., 1997). The minimal promoter 4PRE amplified from the FUS1 promoter region (Hagen et al., 1991) is activated only in case of a mating signal. This signal is elicited by stimulation of the pheromone receptor Ste2 by its ligand α-factor.
(§3) Three colonies of the yeast strain transformed with either p78 4PRE-AEQ or p78 4PRE-LacZ plasmids were grown in the appropiate medium (SC Glucose—Trp) to stationary phase and then diluted in the same medium (with 0.5 μM coelenterazin for the aequorin strain) containing 0; 10^−7; 10^−9; 10^−11M α-factor (Sigma). The plates were then shaken at 30° C., 700 r.p.m., for 3, 6 and 24 hours.
(§4) To allow the comparison between the two reporters and the different stimulation times, the measured detection numbers of Aequorin (FIG. 5) and β-Galactosidase (FIG. 6) are expressed as a ratio: stimulated/non stimulated.

pheromone receptor Ste2 [2] = molecular target: T1, pheromone receptor Ste2; experiment: Pheromone pathway activity reporter assay, 4PRE-LacZ (β-Galactosidase) reporter in yeast; format: cell-based
Procedure: as §1
The cells are distributed and/or grown in a white 96-well plate, in a volume of 100 μl. At the measurement time point, each well receives 100 μl of a β-Galactosidase detection mix (Gal-screen, Tropix).
The plate is incubated for one hour at 28° C.
β-Galactosidase signal is read in a luminometer; the luminescent signal is integrated for 0.5 seconds.
as §2, §3, §4

GPCR Ste2 = molecular target: T2, GPCR Ste2 (Saccharomyces cerevisiae, UniProt D6VTK4); settings: yeast cell, basal level approximately 100 nM; Iida et al., 1990; cited from earlier work
T2 construct: The addition of α-factor to a yeast cell (i.e. stimulation of the GPCR Ste2) raises [Ca^2+]i
T2 sequence (D6VTK4 1-431): T1 sequence (D6VTK4 1-431)

[3] = 1 nM α-factor, 3 hours of stimulation
[4] = 1 nM α-factor, 6 hours of stimulation
[5] = 100 nM α-factor, 3 hours of stimulation
[6] = 100 nM α-factor, 6 hours of stimulation

In the case of α-factor, the “Aequorin detection ratio stimulated/non stimulated” value (pheromone receptor Ste2 [1]; [3]) is reported as 8, the “Aequorin detection ratio stimulated/non stimulated” value (pheromone receptor Ste2 [1]; [4]) is reported as 11 and the “Aequorin detection ratio stimulated/non stimulated” value (pheromone receptor Ste2 [1]; [5]) is reported as 24. For the same substance, the “Aequorin detection ratio stimulated/non stimulated” value (pheromone receptor Ste2 [1]; [6]) was 36, the “β-Galactosidase detection ratio stimulated/non stimulated” value (pheromone receptor Ste2 [2]; [3]) was 4 and the “β-Galactosidase detection ratio stimulated/non stimulated” value (pheromone receptor Ste2 [2]; [4]) was 7. The “β-Galactosidase detection ratio stimulated/non stimulated” value (pheromone receptor Ste2 [2]; [5]) was 7, the “β-Galactosidase detection ratio stimulated/non stimulated” value (pheromone receptor Ste2 [2]; [6]) was 7 and the “[Ca2+]i after addition of α-factor” value (GPCR Ste2) was “a few hundred”.
